Several values for one entry are separate records, joined by “and”; a condition that tells them apart may be missing. Equal entries are not always repeated.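 Results reflect a 48-hour exposure of cells in 96-well plates to compound at five concentrations. GI50 is the concentration that inhibits growth by half. At the TGI there is no net growth.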
What was measured:
Assay in all cases: NCI-60 cell line screen, 48 h
HL-60(TB) leukemia = test system: HL-60(TB) leukemia
RPMI-8226 leukemia = test system: RPMI-8226 leukemia
U251 CNS = test system: U251 CNS
MDA-N = test system: MDA-N
M14 melanoma = test system: M14 melanoma
T-47D breast = test system: T-47D breast
TK-10 renal = test system: TK-10 renal
NCI-H460 lung = test system: NCI-H460 lung
HOP-62 NSCLC = test system: HOP-62 NSCLC
UO-31 renal = test system: UO-31 renal

| SMILES | TGI (HL-60(TB) leukemia) | TGI (RPMI-8226 leukemia) | TGI (U251 CNS) | TGI (MDA-N) | TGI (M14 melanoma) [µM] | TGI (T-47D breast) | TGI (TK-10 renal) [µM] | TGI (NCI-H460 lung) | TGI (HOP-62 NSCLC) [µM] | TGI (UO-31 renal) [µM] | GI50 (HL-60(TB) leukemia) [µM] | GI50 (RPMI-8226 leukemia) [µM] | GI50 (U251 CNS) [µM] | GI50 (MDA-N) [µM] | GI50 (M14 melanoma) [µM] | GI50 (T-47D breast) [µM] | GI50 (TK-10 renal) [µM] | GI50 (NCI-H460 lung) [µM] | GI50 (HOP-62 NSCLC) [µM] |
| --- | --- | --- | --- | --- | --- | --- | --- | --- | --- | --- | --- | --- | --- | --- | --- | --- | --- | --- | --- |
| COC(=O)c1ccc(CCc2cc(O)c(Br)cc2O)cc1 | 4.65 µM | 92.2 µM | 25.8 µM | 30 µM | 29 | 51.1 µM | 27.6 | 33.3 µM | 32.2 | 18.1 |  |  |  |  |  |  |  |  |  |
| O=C1C=C(N2CC2)C(=O)C=C1N1CC1 | 0.51 µM and 0.197 µM | 0.503 µM and 1.87 µM | 0.284 µM and 1.49 µM | 0.274 µM and 1.9 µM | 0.249 | 0.582 µM and 2.85 µM | 0.772 | 0.2 µM and 0.781 µM | 0.738 | 0.229 | 0.00233 | 0.0456 | 0.0233 | 0.113 | 0.0288 | 0.0516 | 0.208 | 0.00521 | 0.0687 |
| CC(C)(C)OC(=O)NC(Cc1ccc(OCc2ccccc2)cn1)C(=O)N1CCSCC1 (centres undefined) | 81.1 µM | 59.1 µM | > 100 µM | > 100 µM | > 100 | 49.6 µM | > 100 | > 100 µM | > 100 | > 100 |  |  |  |  |  |  |  |  |  |
| CCOC(=O)/C=C(\N=P(c1ccccc1)(c1ccccc1)c1ccccc1)C(F)(F)C(F)(F)C(F)(F)C(F)(F)C(F)(F)F | > 100 µM | > 100 µM | > 100 µM | > 100 µM | > 100 | > 100 µM | > 100 | > 100 µM | > 100 | > 100 |  |  |  |  |  |  |  |  |  |
| COc1cccc2c1C(=O)c1c(O)c3c(c(O)c1C2=O)C[C@@](O)(/C(C)=N/NC(=O)c1ccccc1)C[C@@H]3OC1CC(N)C(O)C(C)O1 (some centres undefined) | 0.771 µM | 3.85 µM | 7.18 µM | 1.96 µM | 1.48 | 3.44 µM | 5.85 | 3.55 µM | 0.715 | 8.69 |  |  |  |  |  |  |  |  |  |
| CSc1nncc2[nH]cnc12 | > 100 µM | > 100 µM | > 100 µM | > 100 µM | > 100 | > 100 µM | > 100 | > 100 µM | > 100 | > 100 |  |  |  |  |  |  |  |  |  |
| COC(OC)(c1ccccc1)C(I)I | 20.4 µM | > 100 µM | 33 µM | 22.6 µM | 15.2 | 63.1 µM | 26.2 | 37.7 µM | > 58.3 | 29.8 |  |  |  |  |  |  |  |  |  |
| N#C[C@@]12CCCC(=O)[C@@H]1[C@H]1CCC[C@H]12 | 34.1 µM | 32.3 µM | 35.5 µM | 38.4 µM | 30.2 | 41.3 µM | 35.3 | 32.8 µM | 30.8 | 30 |  |  |  |  |  |  |  |  |  |
| O=C(/C=C\Nc1ccccc1O)C(Cl)(Cl)Cl | > 100 µM | > 100 µM | 81.8 µM | 59.2 µM | > 100 | 96.4 µM | > 100 | > 100 µM | 52.7 | 76.5 |  |  |  |  |  |  |  |  |  |
| COC1(OC)C2(Cl)C(Cl)=C(Cl)C1(Cl)C1COCC12 (centres undefined) | > 100 µM | > 100 µM | > 75 µM | > 100 µM | > 100 | > 100 µM | > 72.3 | > 100 µM | > 100 | > 100 |  |  |  |  |  |  |  |  |  |
| O=C(N/N=C\c1ccc([N+](=O)[O-])cc1)Nc1cccc2ccccc12 | > 31.6 µM | > 100 µM | 23.6 µM | > 100 µM | > 100 | > 47.6 µM | 63.6 | > 51.9 µM | 22.5 | > 79.8 |  |  |  |  |  |  |  |  |  |
| CSc1ccc(/C=C2\N=C(c3ccccc3)N(c3nc4c(Cl)cc(Cl)cc4s3)C2=O)cc1 | 69.7 µM | > 100 µM | 37.3 µM | 36.1 µM | 62.9 | 98.4 µM | > 100 | > 100 µM | 39.7 | 47.9 |  |  |  |  |  |  |  |  |  |
| CC1(C)C(=O)C2(OS(=O)(=O)C(F)(F)F)CCC1C2 (centres undefined) | > 100 µM | > 100 µM | > 100 µM | > 100 µM | > 100 | > 100 µM | > 100 | > 100 µM | > 100 | > 100 |  |  |  |  |  |  |  |  |  |
| O=c1c(O)c(-c2cc(O)c(O)cc2O)oc2cc(O)c(C3OC(CO)C(O)C(O)C3O)c(O)c12 (centres undefined) | > 100 µM | > 100 µM | > 100 µM | > 100 µM | > 100 | > 100 µM | > 100 | > 100 µM | > 100 | > 100 |  |  |  |  |  |  |  |  |  |
| CC12CC3(O)OC(O1)C1(COC(=O)c4ccccc4)C3CC21OC1OC(CO)C(O)C(O)C1O (centres undefined) | > 100 µM | > 100 µM | > 100 µM | > 100 µM | > 100 | > 100 µM | > 100 | > 100 µM | > 100 | > 100 |  |  |  |  |  |  |  |  |  |
| CCOP(=O)(OCC)/C(C#N)=C/c1cccn1N(C)C | > 100 µM | > 100 µM | > 100 µM | > 100 µM | > 100 | 96.3 µM | > 100 | > 100 µM | > 100 | > 100 |  |  |  |  |  |  |  |  |  |

Source: PubChem BioAssay (NCI)
